# Results as given in patent US8063053B2, “1-(arylsulfonyl)-4-(piperazin-1-yl)-1H-benzimidazoles as 5-hydroxytryptamine-6 ligands” (Wyeth LLC, priority 2008, dated 2011).
# pKi: −log10 of the molar value.
# Molecular target: T1, serotonin 5-HT6 receptor subtype (Homo sapiens, UniProt P50406)
# T1 construct: host or cells: CHO-Dukx-A2 cells, clone 50-7
# Assay: 5-HT6 binding affinity ([3H]-LSD SPA binding)
# Conditions: not given
# T1 sequence (P50406 whole entry): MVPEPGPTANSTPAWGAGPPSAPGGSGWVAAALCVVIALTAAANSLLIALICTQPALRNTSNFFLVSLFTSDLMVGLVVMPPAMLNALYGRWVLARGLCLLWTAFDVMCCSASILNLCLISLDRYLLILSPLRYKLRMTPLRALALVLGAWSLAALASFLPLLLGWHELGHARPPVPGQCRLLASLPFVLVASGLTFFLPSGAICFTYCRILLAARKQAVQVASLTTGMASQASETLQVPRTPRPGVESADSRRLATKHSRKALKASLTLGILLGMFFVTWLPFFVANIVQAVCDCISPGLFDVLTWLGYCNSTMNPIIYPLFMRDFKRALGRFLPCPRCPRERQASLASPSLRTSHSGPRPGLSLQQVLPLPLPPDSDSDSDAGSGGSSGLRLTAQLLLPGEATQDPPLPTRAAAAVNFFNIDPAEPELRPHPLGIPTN
row,Structure (SMILES),pKi
1,"O=S(=O)(c1ccccc1)n1cnc2c(N3CCNCC3)cccc21 [Example 3, 1-(phenylsulfonyl)-4-(piperazin-1-yl)-1H-benzo[d]imidazole]",8.87

# Same assay, conditions: read-out: 5-HT6 binding Ki
row,Structure (SMILES),pKi
1,"Cc1cccc(S(=O)(=O)n2cnc3c(N4CCNC(C)C4)cccc32)c1 (stereo not shown) [Example 55, 1-[(3-methylphenyl)sulfonyl]-4-(3-methylpiperazin-1-yl)-1H-benzimidazole]",8.61
2,"C[C@@H]1CN(c2cccc3c2ncn3S(=O)(=O)c2ccccc2Cl)CCN1 [Example 75, 1-[(2-chlorophenyl)sulfonyl]-4-[(3R)-3-methylpiperazin-1-yl]-1H-benzimidazole]",8.92
3,"CC(C)CC1CN(c2cccc3c2ncn3S(=O)(=O)c2ccccc2)CCN1 (stereo not shown) [Example 123, 4-(3-isobutylpiperazin-1-yl)-1-(phenylsulfonyl)-1H-benzimidazole]",7.46
4,"CC(C)C1CN(c2cccc3c2ncn3S(=O)(=O)c2ccccc2)CCN1 (stereo not shown) [Example 120, 4-(3-isopropylpiperazin-1-yl)-1-(phenylsulfonyl)-1H-benzimidazole]",8.21
5,"Cc1nc2c(N3CCNC(C)C3)cccc2n1S(=O)(=O)c1ccccc1 (stereo in doubt) [Example 116, 2-methyl-4-[(3S)-3-methylpiperazin-1-yl]-1-(phenylsulfonyl)-1H-benzimidazole]",9.02
6,"COc1ccc(Cl)cc1S(=O)(=O)n1cnc2c(N3CCNCC3)cccc21 [Example 65, 1-[(5-chloro-2-methoxyphenyl)sulfonyl]-4-piperazin-1-yl-1H-benzimidazole]",8.45
7,"Cc1nc2c(N3C[C@@H](C)N[C@@H](C)C3)cccc2n1S(=O)(=O)c1cccc(F)c1 [Example 99, 4-[(3R,5S)-3,5-dimethylpiperazin-1-yl]-1-[(3-fluorophenyl)sulfonyl]-2-methyl-1H-benzimidazole]",7.89
8,"CC(C)C1CN(c2cccc3c2ncn3S(=O)(=O)c2cccc3ccccc23)CCN1 (stereo not shown) [Example 121, 4-(3-isopropylpiperazin-1-yl)-1-(1-naphthylsulfonyl)-1H-benzimidazole]",9.02
9,"COc1ccccc1S(=O)(=O)n1cnc2c(N3CCNC(C)C3)cccc21 (stereo not shown) [Example 56, 1-[(2-methoxyphenyl)sulfonyl]-4-(3-methylpiperazin-1-yl)-1H-benzimidazole]",8.63
10,"O=S(=O)(c1ccc(Cl)cc1)n1cnc2c(N3CCNCC3)cccc21 [Example 10, 1-[(4-chlorophenyl)sulfonyl]-4-piperazin-1-yl-1H-benzimidazole]",8.88
11,"CC(C)c1nc2c(N3CCNCC3)cccc2n1S(=O)(=O)c1cccc2c(Cl)cccc12 [Example 62, 1-[(5-chloronaphthalen-1-yl)sulfonyl]-2-(1-methylethyl)-4-piperazin-1-yl-1H-benzimidazole]",8.83
12,"Cc1c(Cl)cccc1S(=O)(=O)n1cnc2c(N3C[C@@H]4C[C@H]3CN4)cccc21 [Example 108, 1-[(3-chloro-2-methylphenyl)sulfonyl]-4-[(1S,4S)-2,5-diazabicyclo[2.2.1]hept-2-yl]-1H-benzimidazole]",8.54
13,"CC(C)c1nc2c(N3CCNCC3)cccc2n1S(=O)(=O)c1ccccc1OC(F)(F)F [Example 63, 2-(1-methylethyl)-4-piperazin-1-yl-1-{[2-(trifluoromethoxy)phenyl]sulfonyl}-1H-benzimidazole]",8.94
14,"Cc1ccccc1S(=O)(=O)n1c(C)nc2c(N3CCNCC3)cccc21 [Example 47, 2-methyl-1-[(2-methylphenyl)sulfonyl]-4-piperazin-1-yl-1H-benzimidazole]",8.65
15,"O=S(=O)(c1ccccc1F)n1cnc2c(N3CCNCC3)cccc21 [Example 21, 1-[(2-fluorophenyl)sulfonyl]-4-piperazin-1-yl-1H-benzimidazole]",8.52
16,"Cc1nc2c(N3CCNCC3)cccc2n1S(=O)(=O)c1ccc2ccccc2c1 [Example 43, 2-methyl-1-(2-naphthylsulfonyl)-4-piperazin-1-yl-1H-benzimidazole]",8.98
17,"CC(C)C1CN(c2cccc3c2ncn3S(=O)(=O)c2ccccc2Cl)CCN1 (stereo not shown) [Example 122, 1-[(2-chlorophenyl)sulfonyl]-4-(3-isopropylpiperazin-1-yl)-1H-benzimidazole]",8.97
18,"CCOc1ccccc1S(=O)(=O)n1c(C)nc2c(N3CCNCC3)cccc21 [Example 89, 1-[(2-ethoxyphenyl)sulfonyl]-2-methyl-4-piperazin-1-yl-1H-benzimidazole]",9.12
19,"O=S(=O)(c1cc(C(F)(F)F)ccc1Cl)n1cnc2c(N3CCNCC3)cccc21 [Example 71, 1-{[2-chloro-5-(trifluoromethyl)phenyl]sulfonyl}-4-piperazin-1-yl-1H-benzimidazole]",7.86
20,"O=S(=O)(c1cccc2ccccc12)n1cnc2c(N3C[C@@H]4C[C@H]3CN4)cccc21 [Example 105, 4-[(1S,4S)-2,5-diazabicyclo[2.2.1]hept-2-yl]-1-(naphthalen-1-ylsulfonyl)-1H-benzimidazole]",8.12
21,"Cc1ccc(S(=O)(=O)n2cnc3c(N4CCNCC4)cccc32)c2ccccc12 [Example 35, 1-[(4-methyl-1-naphthyl)sulfonyl]-4-piperazin-1-yl-1H-benzimidazole]",8.96
22,"Cc1nc2c(N3CCNC(C)C3)cccc2n1S(=O)(=O)c1ccccc1 (stereo in doubt) [Example 114, 2-methyl-4-[(3R)-3-methylpiperazin-1-yl]-1-(phenylsulfonyl)-1H-benzimidazole]",8.50
23,"CC1CN(c2cccc3c2ncn3S(=O)(=O)c2cccc(Cl)c2)CCN1 (stereo not shown) [Example 54, 1-[(3-chlorophenyl)sulfonyl]-4-(3-methylpiperazin-1-yl)-1H-benzimidazole]",8.72
24,"O=S(=O)(c1cccc(Cl)c1)n1cnc2c(N3CCNCC3)cccc21 [Example 19, 1-[(3-chlorophenyl)sulfonyl]-4-piperazin-1-yl-1H-benzimidazole]",8.37
25,"O=S(=O)(c1ccccc1Cl)n1cnc2c(N3C[C@@H]4C[C@H]3CN4)cccc21 [Example 106, 1-[(2-chlorophenyl)sulfonyl]-4-[(1S,4S)-2,5-diazabicyclo[2.2.1]hept-2-yl]-1H-benzimidazole]",8.28
26,"Cc1nc2c(N3CCNCC3)cccc2n1S(=O)(=O)c1ccc(OC(F)(F)F)cc1 [Example 30, 2-methyl-4-piperazin-1-yl-1-{[4-(trifluoromethoxy)phenyl]sulfonyl}-1H-benzimidazole]",7.80
27,"Cc1nc2c(N3C[C@@H]4C[C@H]3CN4)cccc2n1S(=O)(=O)c1cccc(F)c1 [Example 112, 4-[(1S,4S)-2,5-diazabicyclo[2.2.1]hept-2-yl]-1-[(3-fluorophenyl)sulfonyl]-2-methyl-1H-benzimidazole]",7.40

# Further lines, results first:
row,pKi,Structure (SMILES)
1,9.16,"O=S(=O)(c1ccccc1Cl)n1cnc2c(N3CCNCC3)cc(F)cc21 [Example 102, 1-[(2-chlorophenyl)sulfonyl]-6-fluoro-4-piperazin-1-yl-1H-benzimidazole]"
2,9.21,"Cc1nc2c(N3CCNC(C)C3)cccc2n1S(=O)(=O)c1cccc2ccccc12 (stereo not shown) [Example 92, 2-methyl-4-(3-methylpiperazin-1-yl)-1-(naphthalen-1-ylsulfonyl)-1H-benzimidazole]"
3,9.22,"CC(C)c1nc2c(N3CCNCC3)cccc2n1S(=O)(=O)c1cccc2ccccc12 [Example 61, 2-(1-methylethyl)-1-(naphthalen-1-ylsulfonyl)-4-piperazin-1-yl-1H-benzimidazole]"
4,9.33,"CC(C)c1nc2c(N3CCNCC3)cccc2n1S(=O)(=O)c1ccccc1Cl [Example 59, 1-[(2-chlorophenyl)sulfonyl]-4-(1-methylethyl)-4-piperazin-1-yl-1H-benzimidazole]"
5,9.35,"CCc1nc2c(N3CCNCC3)cccc2n1S(=O)(=O)c1ccccc1 [Example 6, 2-ethyl-1-(phenylsulfonyl)-4-piperazin-1-yl-1H-benzimidazole]"
6,9.40,"Cc1c(F)cccc1S(=O)(=O)n1cnc2c(N3CCNCC3)cccc21 [Example 87, 1-[(3-fluoro-2-methylphenyl)sulfonyl]-4-piperazin-1-yl-1H-benzimidazole]"
7,9.40,"O=S(=O)(c1cccc(F)c1F)n1cnc2c(N3CCNCC3)cccc21 [Example 83, 1-[(2,3-difluorophenyl)sulfonyl]-4-piperazin-1-yl-1H-benzimidazole]"
8,9.40,"Cc1c(Cl)cccc1S(=O)(=O)n1c(C)nc2c(N3CCNC(C)C3)cccc21 (stereo not shown) [Example 95, 1-[(3-chloro-2-methylphenyl)sulfonyl]-2-methyl-4-(3-methylpiperazin-1-yl)-1H-benzimidazole]"
9,9.40,"CCN1CCN(c2cccc3c2ncn3S(=O)(=O)c2ccccc2)CC1 [Example 7, 4-(4-ethylpiperazin-1-yl)-1-(phenylsulfonyl)-1H-benzimidazole]"
10,9.45,"C[C@H]1CN(c2cccc3c2ncn3S(=O)(=O)c2cccc3ccccc23)CCN1 [Example 81, 4-[(3S)-3-methylpiperazin-1-yl]-1-(naphthalen-1-ylsulfonyl)-1H-benzimidazole]"
11,9.57,"O=S(=O)(c1ccccc1Cl)n1cnc2c(N3CCNCC3)cccc21 [Example 11, 1-[(2-chlorophenyl)sulfonyl]-4-piperazin-1-yl-1H-benzimidazole]"
12,9.68,"Cc1c(Cl)cccc1S(=O)(=O)n1cnc2c(N3CCN[C@@H](C)C3)cccc21 [Example 82, 1-[(3-chloro-2-methylphenyl)sulfonyl]-4-[(3S)-3-methylpiperazin-1-yl]-1H-benzimidazole]"
13,9.69,"Cc1cccc(S(=O)(=O)n2cnc3c(N4CCNCC4)cccc32)c1F [Example 73, 1-[(2-fluoro-3-methylphenyl)sulfonyl]-4-piperazin-1-yl-1H-benzimidazole]"
14,10.29,"CC1CN(c2cccc3c2ncn3S(=O)(=O)c2cccc3ccccc23)CCN1 (stereo not shown) [Example 129, 4-(3-methylpiperazin-1-yl)-1-(1-naphthylsulfonyl)-1H-benzimidazole]"
15,11.40,"Cc1nc2c(N3CCN(C)CC3)cccc2n1S(=O)(=O)c1cccc2ccccc12 [Example 9, 2-methyl-4-(4-methylpiperazin-1-yl)-1-(1-naphthylsulfonyl)-1H-benzimidazole]"
